Laboratory results as given in patent US8729014B2, “Specific HCV NS3 protease inhibitors” (RFS Pharma, LLC, priority 2010, dated 2014).

Assays:
[1] = target: Hepatitis C Virus NS3/4A protease Wild Type (Hepatitis C virus genotype 1b, UniProt O92972); experiment: HCV NS3/4A protease FRET assay, wild type; assay type: biochemical
Method: The HCV NS3/4A protease assays were carried out using a SensoLyte® 490 HCV Protease Assay Kit using fluorescence resonance energy transfer (FRET) peptide (AnaSpec).

[2] = target: Hepatitis C Virus NS3/4A protease D168V (Hepatitis C virus genotype 1b, UniProt O92972, D1194V); experiment: biochemical
Chain of Hepatitis C Virus NS3/4A protease D168V (Hepatitis C virus genotype 1b, UniProt O92972, D1194V) (O92972 1027-1657 D1194V): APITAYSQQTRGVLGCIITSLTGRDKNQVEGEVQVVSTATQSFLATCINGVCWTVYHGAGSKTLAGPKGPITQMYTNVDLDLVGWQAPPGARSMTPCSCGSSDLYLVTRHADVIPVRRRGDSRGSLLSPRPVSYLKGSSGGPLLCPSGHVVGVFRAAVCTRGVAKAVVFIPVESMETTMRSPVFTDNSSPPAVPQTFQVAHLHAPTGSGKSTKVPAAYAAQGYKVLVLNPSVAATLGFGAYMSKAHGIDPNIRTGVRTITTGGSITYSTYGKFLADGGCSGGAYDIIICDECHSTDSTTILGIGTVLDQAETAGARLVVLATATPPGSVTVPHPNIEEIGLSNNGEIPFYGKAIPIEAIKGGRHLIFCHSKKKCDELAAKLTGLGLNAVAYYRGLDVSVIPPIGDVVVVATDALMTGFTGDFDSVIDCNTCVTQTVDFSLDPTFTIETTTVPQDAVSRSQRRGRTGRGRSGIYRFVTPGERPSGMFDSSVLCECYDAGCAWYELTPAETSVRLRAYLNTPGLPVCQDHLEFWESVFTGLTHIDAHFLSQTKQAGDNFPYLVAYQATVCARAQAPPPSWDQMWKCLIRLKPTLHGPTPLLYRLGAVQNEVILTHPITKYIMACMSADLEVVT
Chain of Hepatitis C Virus NS3/4A protease D168V (Hepatitis C virus genotype 1b, UniProt O92972, D1194V) (O92972 1658-1711 partner limits assumed): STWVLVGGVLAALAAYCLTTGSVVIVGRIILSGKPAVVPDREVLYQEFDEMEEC

[3] = tested on: Hepatitis C Virus NS3/4A protease D168V; experiment: biochemical; conditions: D168V vs Wild Type
[4] = target: T1, Hepatitis C Virus NS3/4A protease V170A (UniProt Q9WMX2, V1196A, species not given); assay type: biochemical; conditions: V170A
T1 construct: other: V170A; Anti-HCV protease activity EC90

[5] = tested on: Hepatitis C Virus NS3/4A protease V170A; assay type: biochemical; conditions: V170A vs Wild Type
Vero cells = experiment: Cytotoxicity assay in Vero cells; assay type: cell-based; conditions: Chlorocebus sabaeus; VERO cells, 100 μM
Method: (§1) The toxicity of the compounds was assessed in Vero, human PBM, CEM (human lymphoblastoid), MT-2, and HepG2 cells, as described previously (see Schinazi R. F., Sommadossi J.-P., Saalmann V., Cannon D. L., Xie M.-Y., Hart G. C., Smith G. A. & Hahn E. F. Antimicrob. Agents Chemother. 1990, 34, 1061-67). Cycloheximide was included as positive cytotoxic control, and untreated cells exposed to solvent were included as negative controls. The cytotoxicity IC50 was obtained from the concentration-response curve using the median effective method described previously (see Chou T.-C. & Talalay P. Adv. Enzyme Regul. 1984, 22, 27-55; Belen'kii M. S. & Schinazi R. F. Antiviral Res. 1994, 25,1-11).

[6] = Cytotoxicity assay in Vero cells; assay type: cell-based; conditions: African green monkey, Vero cells
Method: as §1

[7] = tested on: cellular rRNA (cytotoxicity marker); experiment: HCV replicon assay, cytotoxicity by rRNA; assay type: cell-based; conditions: human, Huh 7 Clone B cells containing HCV replicon RNA; rRNA, Huh 7 Clone B cells
Method: (§2) Huh 7 Clone B cells containing HCV replicon RNA would be seeded in a 96-well plate at 5000 cells/well, and the compounds tested at 10 μM in triplicate immediately after seeding. Following five days incubation (37° C., 5% CO2), total cellular RNA was isolated by using versaGene RNA purification kit from Gentra. Replicon RNA and an internal control (TaqMan rRNA control reagents, Applied Biosystems) were amplified in a single step multiplex Real Time RT-PCR Assay. The antiviral effectiveness of the compounds was calculated by subtracting the threshold RT-PCR cycle of the test compound from the threshold RT-PCR cycle of the no-drug control (ΔCt HCV). A ΔCt of 3.3 equals a 1-log reduction (equal to 90% less starting material) in Replicon RNA levels. The cytotoxicity of the compounds was also calculated by using the ΔCt rRNA values. (2′-Me-C) was used as the control. To determine EC90 and IC50 values^2, ΔCt: values were first converted into fraction of starting material^3 and then were used to calculate the % inhibition.

[8] = target: Hepatitis C Virus NS3/4A protease A156S (Hepatitis C virus genotype 1b, UniProt O92972, A1182S); experiment: biochemical
Chain of Hepatitis C Virus NS3/4A protease A156S (Hepatitis C virus genotype 1b, UniProt O92972, A1182S) (O92972 1027-1657 A1182S): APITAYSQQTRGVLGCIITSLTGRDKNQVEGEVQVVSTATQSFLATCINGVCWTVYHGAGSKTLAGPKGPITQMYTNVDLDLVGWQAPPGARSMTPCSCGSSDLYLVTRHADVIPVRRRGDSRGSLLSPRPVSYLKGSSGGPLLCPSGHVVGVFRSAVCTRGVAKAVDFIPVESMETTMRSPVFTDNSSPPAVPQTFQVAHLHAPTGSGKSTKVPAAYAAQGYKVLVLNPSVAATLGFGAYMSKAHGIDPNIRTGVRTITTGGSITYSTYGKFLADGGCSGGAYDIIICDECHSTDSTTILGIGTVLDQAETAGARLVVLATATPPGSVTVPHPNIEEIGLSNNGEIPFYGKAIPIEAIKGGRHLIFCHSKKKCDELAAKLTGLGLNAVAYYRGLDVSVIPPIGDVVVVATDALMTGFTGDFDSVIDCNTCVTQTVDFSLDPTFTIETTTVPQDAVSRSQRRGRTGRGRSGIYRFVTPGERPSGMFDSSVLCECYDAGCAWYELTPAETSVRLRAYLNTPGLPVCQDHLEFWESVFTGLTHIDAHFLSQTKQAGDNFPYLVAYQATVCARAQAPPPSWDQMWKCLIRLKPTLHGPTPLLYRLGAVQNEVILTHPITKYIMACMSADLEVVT
Chain of Hepatitis C Virus NS3/4A protease A156S (Hepatitis C virus genotype 1b, UniProt O92972, A1182S) (O92972 1658-1711 partner limits assumed): as the sequence (O92972 1658-1711 partner limits assumed) above

[9] = tested on: Hepatitis C Virus NS3/4A protease A156S; experiment: biochemical; conditions: A156S vs Wild Type
Cathepsin S = target: T2, Cathepsin S (Homo sapiens, UniProt P25774); experiment: Inhibition of human proteases: cathepsin S; assay type: biochemical
T2 construct: purchased Anaspec
T2 sequence (P25774 115-331): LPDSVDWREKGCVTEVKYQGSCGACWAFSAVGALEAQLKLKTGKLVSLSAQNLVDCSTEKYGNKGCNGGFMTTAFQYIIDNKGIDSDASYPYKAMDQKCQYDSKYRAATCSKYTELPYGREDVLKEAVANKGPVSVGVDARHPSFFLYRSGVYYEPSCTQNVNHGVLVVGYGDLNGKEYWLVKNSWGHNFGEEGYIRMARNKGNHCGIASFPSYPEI
Method: In an effort to circumvent similar toxicities, new protease inhibitors were evaluated for inhibition of a panel of important human proteases. The enzymes tested are Elastase (Neutrophil), Plasmin, Thrombin, and Cathepsin S.
Cathespsin S (Sensolyte Cathepsin S Activity Assay Kit (Anaspec)): Reactions were conducted in a sample volume of 100 μL per well in a black 96 well plate. Protocol A was followed from the kit insert where DTT was added to assay buffer to yield a […] concentration. Included in each assay were a positive control (diluted enzyme and no test compound), inhibitor control (contains diluted enzyme and plasmin inhibitor; component E or thrombin inhibitor; N-a-NAPAP synthetic inhibitor) and substrate control (assay buffer and substrate). Vehicle and autofluorescence controls were also performed. Drug dilutions were added (10 μL) at 10× concentrations in assay buffer. The cathepsin S was added at 40 μL/well at a concentration of 2.5 μg/mL to all wells except the substrate control. Finally, 50 µL of assay buffer containing substrate was added to each well. The substrate was added to a final concentration of 16 nM. […] The fluorescence intensity was read on the Victor 3 plate reader at Ex/Em=490 nm/520 nm. […] Results are shown as substrate control adjusted percentages of maximum absorbance, which was given by the positive control.

Kallikrein = experiment: Inhibition of human proteases: kallikrein; assay type: biochemical
[10] = tested on: HCV replicon RNA in Huh 7 Clone B cells; experiment: HCV replicon assay (replicon RNA, real time RT-PCR); assay type: cell-based; conditions: for DCt HCV / HCV (% inhibition of replicon RNA): five days
Method: as §2, with “Following” for “Huh 7 Clone B cells containing HCV replicon RNA would be seeded in a 96-well plate at 5000 cells/well, and the compounds tested at 10 μM in triplicate immediately after seeding. Following”

[11] = read-out: Anti-HCV protease activity EC50
[12] = read-out: Anti-HCV protease activity EC90
[13] = Hepatitis C virus, HCV replicon, Huh 7 Clone B cells

Chain of Hepatitis C Virus NS3/4A protease Wild Type (O92972 1027-1657): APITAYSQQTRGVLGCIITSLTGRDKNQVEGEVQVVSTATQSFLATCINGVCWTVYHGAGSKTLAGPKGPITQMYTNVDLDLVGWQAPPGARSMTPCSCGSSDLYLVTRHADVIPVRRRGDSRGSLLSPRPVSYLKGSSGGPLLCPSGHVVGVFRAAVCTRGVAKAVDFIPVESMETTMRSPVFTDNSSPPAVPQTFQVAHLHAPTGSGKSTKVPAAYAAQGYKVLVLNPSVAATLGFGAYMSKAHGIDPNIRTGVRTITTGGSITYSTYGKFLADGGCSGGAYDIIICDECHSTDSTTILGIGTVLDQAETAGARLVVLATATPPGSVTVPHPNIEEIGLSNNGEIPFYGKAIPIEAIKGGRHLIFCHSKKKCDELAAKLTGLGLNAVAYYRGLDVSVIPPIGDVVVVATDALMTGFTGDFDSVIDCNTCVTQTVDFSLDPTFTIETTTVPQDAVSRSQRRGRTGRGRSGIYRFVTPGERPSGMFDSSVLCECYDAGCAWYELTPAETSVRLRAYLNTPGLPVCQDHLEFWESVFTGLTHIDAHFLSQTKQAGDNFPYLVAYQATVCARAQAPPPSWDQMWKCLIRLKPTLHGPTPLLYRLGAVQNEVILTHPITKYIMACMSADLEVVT

C=C[C@@H]1C[C@]1(NC(=O)[C@@H]1C[C@@H](OC(=O)N2Cc3cccc(F)c3C2)CN1C(=O)[C@@H](NC(=O)OC(C)(C)C)C(C)(C)C)C(=O)NS(=O)(=O)C1CC1 [Compound 10]
Fold Increase of EC50 [1]: 1.0 | Fold Increase of EC90 [1]: 1.0 | EC50 [1, 11]: 4.9 nM | EC90 [1, 12]: 30 nM | EC50 [2]: 40 nM | EC90 ([2]; D168V, read-out: Anti-HCV protease activity EC90): 630 nM | Fold Increase of EC50 [3]: 8.1 | Fold Increase of EC90 [3]: 21.1 | EC50 [4, 11]: 5.5 nM | EC90 [4, 12]: 9.5 nM | Fold Increase of EC50 [5]: 1.1 | Fold Increase of EC90 [5]: 0.3 | inhibition at 100 µM (Vero cells): -0.8% | IC50 [6]: > 100000 nM | CC50 at 5 days [7]: > 300 nM | EC50 [8]: 8 nM | EC90 ([8]; A156S, read-out: Anti-HCV protease activity EC90): 85 nM | Fold Increase of EC50 [9]: 1.6 | Fold Increase of EC90 [9]: 2.9 | IC50 (Cathepsin S): > 100000 nM | IC50 (Kallikrein): 47000 nM | DCt HCV ([10]; Conc 0.01 μM): 1.16 | HCV (% inhibition of replicon RNA) ([10]; Conc 0.01 μM): 54.99 | DCt HCV ([10]; Conc 0.03 μM): 3.29 | HCV (% inhibition of replicon RNA) ([10]; Conc 0.03 μM): 89.67 | DCt HCV ([10]; Conc 0.1 μM): 6.05 | HCV (% inhibition of replicon RNA) ([10]; Conc 0.1 μM): 98.47 | DCt HCV ([10]; Conc 0.3 μM): 8.72 | HCV (% inhibition of replicon RNA) ([10]; Conc 0.3 μM): 99.76 | EC50 [10, 13]: 10 nM | EC90 [10, 13]: 30 nM
